Assay in all cases: relative viability (nuclei count vs DMSO), 5 days (fraction); higher = more cells survive
Compound in the experiment “Seliciclib + Lapatinib”: CC[C@H](CO)Nc1nc(NCc2ccccc2)c2ncn(C(C)C)c2n1 [Seliciclib] + CS(=O)(=O)CCNCc1ccc(-c2ccc3ncnc(Nc4ccc(OCc5cccc(F)c5)c(Cl)c4)c3c2)o1 [Lapatinib] (partner 2 µM)
Summed up:
(§1)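 Lung cancer cell lines, seeded in 1536-well plates, were treated the following day by pin tool with a single drug or with five library-drug doses (not always all listed) in √10 steps on top of a fixed anchor-drug dose. Cells were fixed and nuclei stained in one step after 5 days, and nuclei were counted. Relative viability is the nuclei count for treated wells divided by that for vehicle wells, reported as medians of duplicate plates.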

Compound in the experiment “Seliciclib + Luminespib”: CC[C@H](CO)Nc1nc(NCc2ccccc2)c2ncn(C(C)C)c2n1 [Seliciclib] + CCNC(=O)c1noc(-c2cc(C(C)C)c(O)cc2O)c1-c1ccc(CN2CCOCC2)cc1 [Luminespib] (partner 0.01 µM)
Summed up: as §1

Compound in the experiment “Seliciclib + Olaparib”: CC[C@H](CO)Nc1nc(NCc2ccccc2)c2ncn(C(C)C)c2n1 [Seliciclib] + O=C(c1cc(Cc2n[nH]c(=O)c3ccccc23)ccc1F)N1CCN(C(=O)C2CC2)CC1 [Olaparib] (partner 8 µM)
Summed up:
as §1

Compound in the experiment “Seliciclib + Decitabine”: CC[C@H](CO)Nc1nc(NCc2ccccc2)c2ncn(C(C)C)c2n1 [Seliciclib] + Nc1ncn([C@H]2C[C@H](O)[C@@H](CO)O2)c(=O)n1 [Decitabine] (partner 2 µM)
In outline: as §1

For the cell line LK-2, the relative viability with Seliciclib + Lapatinib (first compound 0.08 µM) is 0.946; with Seliciclib + Lapatinib (first compound 0.253 µM) it was 0.91; in the experiment with Seliciclib + Lapatinib (first compound 0.8 µM), 0.871; in the experiment with Seliciclib + Lapatinib (first compound 2.53 µM), 0.747; in the experiment with Seliciclib + Lapatinib (first compound 8 µM), 0.452; in the experiment with Seliciclib + Luminespib (first compound 0.08 µM), 0.186. The relative viability is 0.236 with Seliciclib + Luminespib (first compound 0.253 µM); 0.164 in the experiment with Seliciclib + Luminespib (first compound 0.8 µM); 0.174 in the experiment with Seliciclib + Luminespib (first compound 2.53 µM); 0.253 with Seliciclib + Luminespib (first compound 8 µM); 0.817 with Seliciclib + Olaparib (first compound 0.08 µM); 0.723 with Seliciclib + Olaparib (first compound 0.253 µM). The relative viability came out at 0.739 in the experiment with Seliciclib + Olaparib (first compound 0.8 µM); 0.398 with Seliciclib + Olaparib (first compound 2.53 µM); 0.718 in the experiment with Seliciclib + Olaparib (first compound 8 µM); 0.359 with Seliciclib + Decitabine (first compound 0.08 µM); 0.276 in the experiment with Seliciclib + Decitabine (first compound 0.253 µM); 0.309 with Seliciclib + Decitabine (first compound 0.8 µM). Also, the relative viability in the experiment with Seliciclib + Decitabine (first compound 2.53 µM) turned out to be 0.166; in the experiment with Seliciclib + Decitabine (first compound 8 µM) it was 0.263.

Turning to COR-L23, the relative viability with Seliciclib + Lapatinib (first compound 0.08 µM) stood at 0.921; with Seliciclib + Lapatinib (first compound 0.253 µM), 1.14; with Seliciclib + Lapatinib (first compound 0.8 µM), 0.929; with Seliciclib + Lapatinib (first compound 2.53 µM) it was 1.12; with Seliciclib + Lapatinib (first compound 8 µM) it was 0.87; in the experiment with Seliciclib + Luminespib (first compound 0.08 µM), 0.658. For the same cell line, the relative viability with Seliciclib + Luminespib (first compound 0.253 µM) worked out at 0.67; in the experiment with Seliciclib + Luminespib (first compound 0.8 µM), 0.579; with Seliciclib + Luminespib (first compound 2.53 µM) it was 0.871; with Seliciclib + Luminespib (first compound 8 µM), 0.556; with Seliciclib + Olaparib (first compound 0.08 µM), 0.302; with Seliciclib + Olaparib (first compound 0.253 µM), 0.451. Besides, the relative viability stood at 0.345 with Seliciclib + Olaparib (first compound 0.8 µM); 0.364 with Seliciclib + Olaparib (first compound 2.53 µM); 0.297 with Seliciclib + Olaparib (first compound 8 µM); 0.395 in the experiment with Seliciclib + Decitabine (first compound 0.08 µM); 0.34 with Seliciclib + Decitabine (first compound 0.253 µM); 0.478 with Seliciclib + Decitabine (first compound 0.8 µM). Also, the relative viability was 0.419 with Seliciclib + Decitabine (first compound 2.53 µM) and 0.403 with Seliciclib + Decitabine (first compound 8 µM).

Turning to NCI-H2405, the relative viability with Seliciclib + Lapatinib (first compound 0.08 µM) was 1.11; with Seliciclib + Lapatinib (first compound 0.253 µM) it was 0.851; with Seliciclib + Lapatinib (first compound 0.8 µM), 1.05; in the experiment with Seliciclib + Lapatinib (first compound 2.53 µM), 0.919; with Seliciclib + Lapatinib (first compound 8 µM) it was 0.902; in the experiment with Seliciclib + Luminespib (first compound 0.08 µM) it was 0.676. Also, the relative viability with Seliciclib + Luminespib (first compound 0.253 µM) was 0.661; with Seliciclib + Luminespib (first compound 0.8 µM), 0.799; in the experiment with Seliciclib + Luminespib (first compound 2.53 µM), 0.385; in the experiment with Seliciclib + Luminespib (first compound 8 µM) it was 0.548; in the experiment with Seliciclib + Olaparib (first compound 0.08 µM), 0.88; with Seliciclib + Olaparib (first compound 0.253 µM), 0.939. Moreover, the relative viability with Seliciclib + Olaparib (first compound 0.8 µM) amounted to 0.934; with Seliciclib + Olaparib (first compound 2.53 µM), 0.739; in the experiment with Seliciclib + Olaparib (first compound 8 µM), 0.724; in the experiment with Seliciclib + Decitabine (first compound 0.08 µM), 0.758; in the experiment with Seliciclib + Decitabine (first compound 0.253 µM), 0.68; with Seliciclib + Decitabine (first compound 0.8 µM), 0.742. The relative viability came to 0.63 in the experiment with Seliciclib + Decitabine (first compound 2.53 µM) and 0.716 with Seliciclib + Decitabine (first compound 8 µM).

Take SK-LU-1: the relative viability with Seliciclib + Lapatinib (first compound 0.08 µM) was 0.847; with Seliciclib + Lapatinib (first compound 0.253 µM), 0.971; with Seliciclib + Lapatinib (first compound 0.8 µM) it was 0.812; in the experiment with Seliciclib + Lapatinib (first compound 2.53 µM) it was 0.775; with Seliciclib + Lapatinib (first compound 8 µM) it was 0.666; with Seliciclib + Luminespib (first compound 0.08 µM) it was 0.204. Further, the relative viability in the experiment with Seliciclib + Luminespib (first compound 0.253 µM) came to 0.209; with Seliciclib + Luminespib (first compound 0.8 µM), 0.207; with Seliciclib + Luminespib (first compound 2.53 µM) it was 0.187; with Seliciclib + Luminespib (first compound 8 µM), 0.21; with Seliciclib + Olaparib (first compound 0.08 µM), 0.411; with Seliciclib + Olaparib (first compound 0.253 µM), 0.543. Besides, the relative viability with Seliciclib + Olaparib (first compound 0.8 µM) was determined as 0.478; in the experiment with Seliciclib + Olaparib (first compound 2.53 µM), 0.404; with Seliciclib + Olaparib (first compound 8 µM), 0.34; with Seliciclib + Decitabine (first compound 0.08 µM), 0.614; with Seliciclib + Decitabine (first compound 0.253 µM) it was 0.544; in the experiment with Seliciclib + Decitabine (first compound 0.8 µM) it was 0.649. The values for the relative viability with Seliciclib + Decitabine (first compound 2.53 µM) and with Seliciclib + Decitabine (first compound 8 µM) were 0.614 and 0.542, respectively.

For the origin of these results see the supplement of paper PMC10307832.
